The record followed here is PubChem BioAssay (NCI).

Values joined by “and” are separate entries in the source; they are usually repeats but may differ in a detail not shown here. Equal entries are not always repeated.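 These data come from cells grown in 96-well plates and exposed to compound for 48 hours at five concentrations. GI50 marks 50% less growth. TGI is the concentration that stops growth completely.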

What all share (test): NCI tumour cell line growth inhibition, 48 h
The test system of assay [1] is DU-145 prostate.
Assay [2] deals with MDA-MB-231 breast.
For assay [3], the system named is MOLT-4 leukemia.
The subject of assay [4] is NCI-H226 lung.
Assay [5] has as its system NCI/ADR-RES ovarian.
For assay [6], the system named is SF-295 CNS.
Assay [7] concerns SF-539 CNS.
Assay [8] relates to SN12C renal.
For assay [9], the system named is SR leukemia.
The test system of assay [10] is UO-31 renal.

Turning to `c1cnc2c(c1)Nc1cnncc1S2`, the TGI in assay [1], in assay [2], in [3], in [4], in assay [5] and in assay [6] was over 100 µM each time. In addition, the TGI in [7], in assay [8], in assay [9] and in assay [10] was over 100 µM in each case.
Consider `COc1ccc(-n2sc(=O)n(Cc3ccc(COC(=O)C(C)c4ccc(CC(C)C)cc4)cc3)c2=O)cc1` (stereo not given), for which the GI50 was 1.85 µM in assay [1]; 1.86 µM in assay [2]; 1.21 µM in [3]; 11.9 µM in assay [4]; 7.5 µM in assay [5]; 10.6 µM in [6]. The GI50 was 5.12 µM in [7], 2.83 µM in [8], 1.46 µM in assay [9] and 0.819 µM in [10]. The TGI in assay [1] worked out at 6.34 µM; in assay [2] it was 7.11 µM; in assay [3], 3.89 µM; in [4], 33.2 µM; in assay [5] it was 20 µM; in assay [6], 24.1 µM. Besides, the TGI is 10.9 µM in [7], 9.49 µM in assay [8], 50 µM in assay [9] and 1.6 µM in assay [10].
Turning to `CCOC(=O)C(Cc1ccc(OC)cc1)C(=O)OCC`, the GI50 was 2.65 µM in assay [1]; 7.87 µM in [2]; 3.2 µM in assay [3]; 12.4 µM in assay [4]; 3.77 µM in assay [5]; 5 µM in assay [6]. For the same compound, the GI50 is 2.92 µM in assay [7], 5.77 µM in assay [8], 1.88 µM in assay [9] and 5.63 µM in assay [10]. Moreover, the TGI came out at 7.71 µM in assay [1]; 27.3 µM in [2]; 11 µM in assay [3]; 30.3 µM in assay [4]; 19 µM in assay [5]; 20.3 µM in [6]. The TGI was 9.43 µM in [7], 21.7 µM in assay [8], 5.38 µM in assay [9] and 19.7 µM in assay [10].
On to `Cc1sc(/N=C2/NC(=O)CS2)nc1-c1nc(/N=C2/NC(=O)CS2)sc1C`, for which the GI50 in assay [1] was over 50 µM; in assay [2] it was over 50 µM; in [3] it was 19.9 µM; in assay [4], over 50 µM; in [5], 21.2 µM; in assay [6], over 50 µM. In addition, the GI50 in [7] was over 50 µM; in assay [8], over 50 µM; in assay [9] it was 24.9 µM; in assay [10], over 50 µM. Besides, the TGI in [1], in assay [2], in assay [3], in assay [4], in [5] and in assay [6] was over 50 µM each time. The TGI in assay [7], in assay [8], in assay [9] and in [10] was over 50 µM each time.
As for `C=C1C(=O)OC2CC3(C)OC3C3OC3C3=CC(OC3=O)C12` (stereo not given), the GI50 was 16.6 µM in assay [1]; 8.33 µM in assay [2]; 3.25 µM in [3]; 8.82 µM in assay [4]; 27.2 µM in assay [5]; 37.4 µM in assay [6]. For the same compound, the GI50 in assay [7] was 4.43 µM; in assay [8], 11.3 µM; in [9], 2.82 µM; in assay [10], 2.84 µM. Further, the TGI in assay [1] is 34.3 µM; in assay [2], 22.7 µM; in assay [3] it was 9.75 µM; in assay [4] it was 28.5 µM; in assay [5] it was 69.3 µM; in assay [6], over 100 µM. For the same compound, the TGI was found to be 16.7 µM in assay [7], 25.2 µM in [8], 7.81 µM in assay [9] and 7.54 µM in assay [10].
Take `O=C(NO)c1cnc(N2CCN(S(=O)(=O)c3ccc4ccccc4c3)CC2)nc1`: the GI50 in [1] was 0.0445 µM; in assay [2], 0.199 µM; in [3] it was 0.0424 µM; in [4] it was 0.157 µM; in assay [5] it was 0.0324 µM; in [6], 0.0532 µM. Also, the GI50 in assay [7] is 0.0762 µM; in [8], 0.198 µM; in assay [9], 0.0387 µM; in assay [10], 0.0597 µM. In addition, the TGI is 2.23 µM in assay [1]; 5.28 µM in [2]; over 41.3 µM in assay [3]; 2.55 µM in assay [4]; 0.268 µM in assay [6]; 2.8 µM in [7]. Also, the figures for the TGI in assay [8], in [9] and in assay [10] were 13.2 µM, over 90.7 µM and 0.854 µM, respectively.
As to `CON`, the GI50 in [1], in assay [2], in assay [3], in assay [4], in assay [5] and in assay [6] was over 100 µM each time. The GI50 in [7], in assay [8], in assay [9] and in assay [10] was over 100 µM each time. In addition, the TGI in [1], in assay [2], in [3], in assay [4], in assay [5] and in [6] was over 100 µM throughout. For the same compound, the TGI in assay [7], in [8], in [9] and in assay [10] was over 100 µM throughout.
For `CCc1ccccc1-n1c(N)c(C#N)c(-c2ccc(OC)c(OC)c2)c(C#N)c1=O`, the GI50 is 29.6 µM in [1]; 17.1 µM in assay [2]; over 100 µM in assay [3]; 17.1 µM in [4]; 31.9 µM in assay [5]; 22.4 µM in assay [6]. Moreover, the GI50 in assay [7] is 15 µM; in assay [8], 19 µM; in [9] it was 15 µM; in assay [10] it was 25.5 µM. The TGI was over 100 µM in [1]; 35.8 µM in [2]; over 100 µM in [3]; 41.8 µM in assay [4]; over 100 µM in [5]; 61.1 µM in assay [6]. The TGI is 28.3 µM in assay [7], 45.1 µM in assay [8], over 100 µM in assay [9] and over 100 µM in assay [10].
On to `CC(C)CNc1nc(N=[N+]=[N-])nc(NCC(C)C)n1`, for which the GI50 in [1], in assay [2], in assay [3], in assay [4], in assay [5] and in assay [6] was over 10 µM in each case. Also, the GI50 in [7], in assay [8], in assay [9] and in assay [10] was over 10 µM throughout. In addition, the TGI in [1], in assay [2], in assay [3], in [4], in assay [5] and in assay [6] was over 10 µM each time. Also, the TGI in assay [7], in [8], in assay [9] and in [10] was over 10 µM throughout.
Consider `Brc1ccc(Br)nn1`, for which the GI50 in assay [1] was 3.73 µM; in assay [2], 1.83 µM; in assay [3], 1.69 µM; in assay [4] it was 2.28 µM; in [5], 2 µM; in assay [6], 5.38 µM. The GI50 in assay [7] is 3.25 µM; in assay [8], 1.62 µM; in assay [9], 0.439 µM; in assay [10], 2.62 µM. Moreover, the TGI in [1] stood at 13.4 µM; in assay [2], 4.23 µM; in assay [3], 5.48 µM; in assay [4] it was 5.57 µM; in assay [5] it was 5.78 µM; in [6] it was 18.6 µM. Besides, the TGI in assay [7] came to 12.2 µM; in assay [8], 3.53 µM; in [9], 3.52 µM; in assay [10], 14.9 µM.
On to `CC[C@H](C)[C@H](NC(=O)C12CC(NC(C)=O)(C1)C2)C(=O)N(C)[C@H](C[C@@H](OC(C)=O)c1nc(C(=O)N[C@@H](Cc2ccccc2)C[C@H](C)C(=O)OC)cs1)C(C)C`, for which the GI50 in assay [1] is 0.136 µM; in [2], 0.439 µM; in assay [3] it was 0.748 µM; in assay [4], over 7.53 µM; in assay [5], over 16.7 µM; in assay [6] it was 0.36 µM. The GI50 in assay [7] is 0.438 µM; in assay [8], 0.937 µM; in assay [9], 0.0336 µM; in [10] it was over 8.2 µM. Moreover, the TGI was over 10.7 µM in assay [1]; over 16.7 µM in [2]; over 16.7 µM in [3]; over 16.7 µM in assay [4]; over 16.7 µM in assay [5]; over 5.25 µM in [6]. Further, the TGI in assay [7] is 1.15 µM; in assay [8] it was over 16.7 µM; in [9] it was over 16.7 µM; in [10], over 16.7 µM.
On to `Nc1cccc2nsnc12`, for which the TGI was over 100 µM in assay [1]; over 100 µM in assay [2]; over 54.5 µM in assay [3]; over 100 µM in [4]; over 100 µM in [5]; over 100 µM in [6]. Further, the TGI in assay [7] is over 100 µM; in assay [8] it was over 100 µM; in [9], over 63.5 µM; in assay [10], over 100 µM.
With `CS[C@@]1(C(=O)Nc2ccc3[nH]nc(-c4ccc(OC(C)C)nc4)c3c2)CCN(CC(=O)N2CC=C(c3ccc(-c4ncn(C)n4)cc3)CC2)C1`, the GI50 in assay [1] was over 100 µM; in assay [2] it was 0.38 µM; in [3] it was 5.26 µM; in assay [4], over 100 µM; in assay [5], 12.6 µM; in assay [6] it was over 27.3 µM. The GI50 in assay [7] was over 100 µM; in assay [8], over 100 µM; in [9] it was 4.35 µM; in assay [10] it was 1.01 µM. The TGI in assay [1], in [2], in assay [3], in assay [4], in [5] and in assay [6] was over 100 µM each time. Moreover, the TGI in [7] was over 100 µM; in assay [8] it was over 100 µM; in [9], 63.6 µM; in assay [10], over 100 µM.
Regarding `C=C=[CH][Sn]([c]1ccccc1)([c]1ccccc1)[c]1ccccc1`, the GI50 in assay [1] was 1.14 µM; in assay [2], 1.79 µM; in assay [3], 1.14 µM; in [4], 2.28 µM; in [5] it was 2.19 µM; in assay [6] it was 1.96 µM. In addition, the GI50 was 2.08 µM in [7], 1.68 µM in assay [8], 1.32 µM in assay [9] and 1.44 µM in assay [10]. In addition, the TGI in assay [1] came out at 2.42 µM; in assay [2], 3.36 µM; in assay [3] it was 6.49 µM; in assay [4], 4.6 µM; in assay [5] it was 5.94 µM; in [6], 3.89 µM. The TGI came to 4.34 µM in assay [7], 3.19 µM in [8], 8.39 µM in assay [9] and 3.18 µM in assay [10].
As for `CC[C@@]1(OC(=O)CN)C(=O)OCc2c1cc1n(c2=O)Cc2cc3c(N)c4c(cc3nc2-1)OCO4`, the GI50 is under 0.0001 µM in assay [1]; 0.0873 µM and 0.3 µM in assay [2]; under 0.0001 µM in assay [3]; under 0.0001 µM in assay [4]; 0.000145 µM in [5]; under 0.0001 µM in assay [6]. Further, the GI50 in assay [7], in [8], in assay [9] and in assay [10] was under 0.0001 µM each time. Moreover, the TGI in assay [2] was over 100 µM; in [3], 0.146 µM; in [4], 0.109 µM and 0.0279 µM; in [5], 0.0193 µM; in assay [7], 0.000945 µM; in assay [9], 0.159 µM.
As to `N#CSCC(=O)c1ccc(Cl)cc1`, the GI50 was 2.54 µM in assay [1]; 3.57 µM in assay [2]; 1.03 µM in assay [3]; 10.8 µM in [4]; 3.11 µM in [5]; 2.89 µM in assay [6]. For the same compound, the GI50 in [7] was 2.85 µM; in assay [8], 3.69 µM; in assay [9], 0.19 µM; in assay [10], 3.23 µM. Further, the TGI in assay [1] is 6.15 µM; in assay [2] it was 12.4 µM; in [3], over 33.1 µM; in assay [4], 33.3 µM; in [5], 11 µM; in assay [6], 13.5 µM. Besides, the TGI in assay [7] is 14.9 µM; in assay [8], 19 µM; in assay [9], over 24.6 µM; in [10], 13.5 µM.
